The text below walks through data of publication PMC2828149 (Journal of ethnopharmacology, 2009).

Converted amounts (≈) assume the structure as drawn. Where two headings read alike, the source gives them in different places.

For data set [1], the target named is T1, recombinant human Monoamine Oxidase A (MAO-A) (Homo sapiens, UniProt P21397).
T1 sequence (P21397 1-527): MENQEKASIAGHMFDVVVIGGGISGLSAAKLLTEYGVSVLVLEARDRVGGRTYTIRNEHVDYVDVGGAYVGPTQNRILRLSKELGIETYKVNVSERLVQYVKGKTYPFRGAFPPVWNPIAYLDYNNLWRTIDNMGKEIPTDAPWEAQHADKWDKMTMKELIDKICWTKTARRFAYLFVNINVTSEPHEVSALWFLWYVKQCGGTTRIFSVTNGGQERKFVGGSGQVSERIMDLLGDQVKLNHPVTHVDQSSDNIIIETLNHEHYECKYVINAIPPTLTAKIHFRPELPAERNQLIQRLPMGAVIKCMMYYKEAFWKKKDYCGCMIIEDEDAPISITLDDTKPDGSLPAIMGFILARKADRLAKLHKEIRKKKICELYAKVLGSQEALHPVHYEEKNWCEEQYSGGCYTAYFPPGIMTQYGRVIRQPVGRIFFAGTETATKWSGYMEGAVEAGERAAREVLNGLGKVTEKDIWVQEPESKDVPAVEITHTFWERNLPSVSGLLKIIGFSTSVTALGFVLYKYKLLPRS
Description: kynuramine deamination assay, recombinant human MAO-A. Type of data set: biochemical. To be noted: for MAO-A inhibitory activity in words: pure compounds; for MAO-A activity more potent than MAO-B: ratio of MAO-B to MAO-A IC50.

For data set [2], the target named is T2, recombinant human Monoamine Oxidase B (MAO-B) (Homo sapiens, UniProt P27338).
T2 sequence (P27338 1-520): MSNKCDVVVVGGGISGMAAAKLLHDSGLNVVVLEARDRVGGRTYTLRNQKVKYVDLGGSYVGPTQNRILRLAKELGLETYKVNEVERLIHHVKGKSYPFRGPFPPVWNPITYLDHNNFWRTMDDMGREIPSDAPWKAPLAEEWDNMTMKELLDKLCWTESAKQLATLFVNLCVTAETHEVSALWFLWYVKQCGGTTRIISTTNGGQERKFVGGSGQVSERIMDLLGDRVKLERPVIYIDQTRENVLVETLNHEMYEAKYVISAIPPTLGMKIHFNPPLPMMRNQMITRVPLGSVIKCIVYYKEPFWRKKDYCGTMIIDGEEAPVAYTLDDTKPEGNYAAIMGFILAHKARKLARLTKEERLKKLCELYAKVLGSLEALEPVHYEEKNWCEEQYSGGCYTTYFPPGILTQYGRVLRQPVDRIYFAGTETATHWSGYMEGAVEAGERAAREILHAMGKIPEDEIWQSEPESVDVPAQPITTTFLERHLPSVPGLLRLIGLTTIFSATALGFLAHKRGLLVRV
Kind of data set: biochemical. Type of data set: biochemical.

The subject of data set [3] is ROS generation in Myelomonocytic HL-60 cells. Kind of data set: cell based antioxidant assay, inhibition of PMA-induced ROS generation. To be noted: for Antioxidant IC50: inhibition of PMA-induced ROS generation in HL-60 cells; for IC50: Homo sapiens, HL-60, read-out: Antioxidant IC50.
In the next data set the test system is HL-60 cells. Kind of data set: in vitro. The class given is cell-based. Conditions: HL-60 cells, 48 hours, XTT.
The next data set is described as follows: in vitro. Conditions: human. Type of data set: cell-based.
The next data set has as its system PC12 cells. Conditions: ref Cho et al., 2008, Heo and Lee, 2005; cited from earlier work.
Another data set concerns MAO-A. Conditions: liver homogenate; ref Schwartz et al., 2003; cited from earlier work.
The next data set concerns rat striatal slices. To be noted: ref Schwartz et al., 2003; cited from earlier work.
Where [4] appears, read: read-out: MAO-A IC50, pure compounds and standards.
Setting [5] is: read-out: MAO-B IC50, pure compounds and standards.

With `Cc1[nH]ccc2c1[nH]c1cc(=O)ccc12` [compound 3, harmol], in data set [1], the IC50 (usually the concentration at which inhibition is half-maximal) amounted to 0.018 µM and the “MAO-A inhibitory activity in words” value is “much weaker than 6 or 7”.
As for `COc1ccc2c3c([nH]c2c1)[C@@H](C)NCC3` [compound 5, tetrahydroharmine], the “MAO-A inhibitory activity in words” value in data set [1] is recorded as “much weaker than 6 or 7”. The IC50 in data set [1] (setting [4]) is 0.074 µM; in data set [2] (setting [5]), above 100 µM. In addition, in data set [3], the “Antioxidant IC50” value is given as “NA (NA = No antioxidant activity upto 31.25 µg/mL)”. In addition, the “Cytotoxicity IC50” value in the data set on HL-60 cells is “NC (NC = No cytotoxicity to HL-60 cells up to 31.25 µg/mL)”.
As to `COc1ccc2c3c([nH]c2c1)C(C)=NCC3` [compound 6, harmaline], the “MAO-A activity more potent than MAO-B” value in data set [1] is > 10,000 fold. Moreover, the values for the IC50 in data set [2] and in data set [3] were 25 µM and above 31.2 µg/mL, respectively. Also, in “in vitro”, 25 µg/mL (≈ 117 µM) corresponded to half-maximal inhibition (IC50 at 48 h).
For `Cc1c(C)c2c(c(C)c1O)CCC(C)(C(=O)O)O2` (stereo not drawn) [trolox, reference compound], the IC50 in data set [3] is 0.14 µg/mL (≈ 0.559 µM).
`COc1cccc2c1C(=O)c1c(O)c3c(c(O)c1C2=O)C[C@@](O)(C(=O)CO)C[C@@H]3O[C@H]1C[C@H](N)[C@H](O)[C@H](C)O1` [Doxorubicin, reference compound] displayed an IC50 at 48 h in “in vitro” of 0.2 to 0.35 µg/mL (≈ 0.368 to 0.644 µM).
Consider banistenoside B [compound 2], for which the IC50 in data set [1] (setting [4]) is 21.5 µM; in data set [2] (setting [5]), above 100 µM. The “Cytotoxicity IC50” value in the data set on HL-60 cells stood at 7.8 µg/mL.
Turning to banistenoside A [compound 1], the IC50 in data set [1] (setting [4]) was 4.9 µM; in data set [2] (setting [5]), above 100 µM. Also, the “Antioxidant IC50” value in data set [3] is reported as “NA (NA = No antioxidant activity upto 31.25 µg/mL)”. Besides, the “Cytotoxicity IC50” value in the data set with HL-60 cells is listed as above 12.5 µg/mL.
With `Oc1cc(O)c2c(c1)O[C@H](c1ccc(O)c(O)c1)[C@H](O)C2` [compound 8, (−)-2R,3R–Epicatechin], the IC50 in data set [1] was 51.7 µM; in data set [2], 65 µM; in data set [3], below 0.13 µg/mL. Further, in “in vitro”, the IC50 at 48 h was found to be 6.3 µg/mL (≈ 21.7 µM). The “protection from Aβ-induced neurotoxicity in words” value in the data set on PC12 cells is recorded as “protection”.
Consider `O=C1O[C@H]([C@@H](O)CO)C(O)=C1O` [Vitamin C, reference compound], for which the “Antioxidant IC50” value in data set [3] came out at 1.34 µg/mL.
Turning to `Oc1cc(O)c2c(c1)O[C@H](c1ccc(O)c(O)c1)[C@H](O)[C@H]2c1c(O)cc(O)c2c1O[C@H](c1ccc(O)c(O)c1)[C@H](O)C2` [compound 9, (−)-2R,3R-epicatechin-4β,8-(−)-2R,3R-epicatechin], the 50% inhibitory concentration (IC50) in data set [1] (setting [4]) amounted to 8.5 µM; in data set [2] (setting [5]), 35 µM. In addition, the “Antioxidant IC50” value in data set [3] was 0.57 µg/mL. For the same compound, the “Cytotoxicity IC50” value in the data set with HL-60 cells is on record as “NC (NC = No cytotoxicity to HL-60 cells up to 31.25 µg/mL)”.
`COc1ccc2c(c1)[nH]c1c(C)nccc12` [compound 7, harmine]: the “MAO-A activity more potent than MAO-B” value in data set [1] is recorded as > 10,000 fold. The IC50 was 20 µM in data set [2] and above 31.2 µg/mL in data set [3]. Also, the IC50 at 48 h in “in vitro” is above 31.2 µg/mL. In the data set with MAO-A, the “inhibition of MAO-A in words” value is on record as “concentration-dependent inhibition”. The “release of dopamine in words” value in the data set on rat striatal slices was “increase”.
